Measured values published in ChEMBL document CHEMBL1201862, “PubChem BioAssay data set” (2004).
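Dose response: 5 concentrations. Exposure: 48 h. Format: 96-well plates. Endpoint: linear interpolation; highest concentration if not reached. GI50 = concentration required for 50% inhibition of growth.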 Active and inactive are the calls of the source. No stated cut-off is given here; in the data, active = GI50 up to about 1.1 µM and inactive = higher.

Legend:
Assay in all cases: DTP human tumour cell line panel, 48 h
SNB-75 = system: SNB-75
MCF7 = system: MCF7
NCI-H460 = system: NCI-H460
HOP-92 = system: HOP-92
U-251 = system: U-251
A498 = system: A498
T47D = system: T47D
UACC-62 = system: UACC-62
A549 = system: A549
DU-145 = system: DU-145
MOLT-4 = system: MOLT-4
NCI/ADR-RES = system: NCI/ADR-RES
MDA-N = system: MDA-N
OVCAR-8 = system: OVCAR-8
SF-268 = system: SF-268
LOX IMVI = system: LOX IMVI
NCI-H522 = system: NCI-H522
SK-MEL-2 = system: SK-MEL-2

Measured: GI50

C[NH+]1[C@@H](Cc2ccccc2)C(=O)O[B-]1(F)c1ccccc1 (stereo partly drawn)
inactive: SNB-75 > 100 µM | MCF7 > 100 µM | NCI-H460 > 100 µM | HOP-92 > 100 µM | U-251 > 100 µM | A498 > 100 µM | T47D > 100 µM | UACC-62 > 100 µM | A549 > 100 µM | DU-145 > 100 µM | MOLT-4 > 100 µM | NCI/ADR-RES > 100 µM | MDA-N > 100 µM | OVCAR-8 > 100 µM | SF-268 > 100 µM

CCN(CCO)CC1COc2ccccc2O1 (stereo not drawn)
inactive: MCF7 > 100 µM | NCI-H460 > 100 µM | LOX IMVI > 100 µM | HOP-92 > 100 µM | U-251 > 100 µM | A498 > 100 µM | T47D > 100 µM | UACC-62 > 100 µM | A549 > 100 µM | DU-145 > 100 µM | NCI-H522 > 100 µM | MOLT-4 > 100 µM | NCI/ADR-RES > 100 µM | MDA-N > 100 µM | OVCAR-8 > 100 µM | SF-268 > 100 µM

Cc1ccc(C[N+](C)(C)N)cc1C
inactive: SNB-75 > 10 µM | MCF7 > 10 µM | NCI-H460 > 10 µM | LOX IMVI > 10 µM | HOP-92 > 10 µM | U-251 > 10 µM | A498 > 10 µM | T47D > 10 µM | UACC-62 > 10 µM | A549 > 10 µM | DU-145 > 10 µM | NCI-H522 > 10 µM | MOLT-4 > 10 µM | NCI/ADR-RES > 10 µM | MDA-N > 10 µM | OVCAR-8 > 10 µM | SF-268 > 10 µM

C[N+]1(C)C2Cc3ccccc3C1Cc1ccccc12
inactive: MCF7 > 100 µM | NCI-H460 > 100 µM | LOX IMVI > 100 µM | HOP-92 61.1 µM | U-251 > 100 µM | A498 > 100 µM | T47D > 100 µM | UACC-62 71.6 µM | A549 > 100 µM | DU-145 > 100 µM | NCI-H522 > 100 µM | MOLT-4 > 100 µM | NCI/ADR-RES > 100 µM | MDA-N 78.2 µM | OVCAR-8 > 100 µM | SF-268 > 100 µM | SK-MEL-2 > 100 µM

CC(=O)N1C(=O)c2cc3ccccc3cc21
inactive: SNB-75 92.5 µM | MCF7 31.3 µM | NCI-H460 > 100 µM | LOX IMVI > 100 µM | HOP-92 62.7 µM | U-251 > 100 µM | A498 24.7 µM | T47D > 100 µM | UACC-62 > 100 µM | A549 > 100 µM | DU-145 > 100 µM | NCI/ADR-RES > 100 µM | MDA-N > 100 µM | OVCAR-8 > 100 µM | SF-268 > 100 µM | SK-MEL-2 > 100 µM

CCCC(=O)N1CCN(c2ccc3c(c2)OC(C)O3)CC1 (stereo not drawn)
inactive: SNB-75 15.4 µM | MCF7 > 100 µM | NCI-H460 > 100 µM | HOP-92 > 100 µM | U-251 > 100 µM | A498 > 100 µM | T47D > 100 µM | UACC-62 > 100 µM | A549 > 100 µM | DU-145 > 100 µM | NCI-H522 > 100 µM | MOLT-4 > 100 µM | NCI/ADR-RES > 100 µM | MDA-N > 100 µM | OVCAR-8 > 100 µM | SF-268 > 100 µM

CCCCCCCCCCCCOCCCCCCCCC/C=C/c1ccc2c(c1)OCCOCCOCCOCCO2
inactive: SNB-75 16.4 µM | MCF7 16.3 µM | NCI-H460 18.4 µM | LOX IMVI 19.3 µM | HOP-92 12.2 µM | U-251 22.8 µM | T47D 24.9 µM | UACC-62 15.1 µM | A549 17.6 µM | DU-145 33 µM | NCI-H522 13.2 µM | MOLT-4 28.7 µM | NCI/ADR-RES 17.5 µM | MDA-N 18.5 µM | OVCAR-8 12.7 µM | SF-268 22.8 µM | SK-MEL-2 15.8 µM

CCN1C[C@]2(C)CC[C@H](OC)C34C5C[C@@H]6[C@@H](OC)C[C@@](OC)(C5[C@H]6OCc5ccccc5)C(C13)[C@H](OC(C)=O)[C@@H]42 (stereo partly drawn)
inactive: SNB-75 1.18 µM | MCF7 > 100 µM | NCI-H460 59.8 µM | LOX IMVI > 100 µM | HOP-92 38.6 µM | U-251 > 100 µM | A498 > 100 µM | T47D > 100 µM | UACC-62 > 100 µM | A549 > 100 µM | DU-145 > 100 µM | MOLT-4 73.6 µM | NCI/ADR-RES > 100 µM | MDA-N > 100 µM | OVCAR-8 > 100 µM | SF-268 > 100 µM | SK-MEL-2 > 100 µM

O=C1NC(=O)C2=C1CCC2O (stereo not drawn)
inactive: SNB-75 > 100 µM | MCF7 > 100 µM | NCI-H460 > 100 µM | LOX IMVI > 100 µM | HOP-92 > 100 µM | U-251 > 100 µM | A498 > 100 µM | T47D > 100 µM | UACC-62 > 100 µM | A549 > 100 µM | DU-145 > 100 µM | MOLT-4 > 100 µM | NCI/ADR-RES > 100 µM | MDA-N > 100 µM | OVCAR-8 > 100 µM | SF-268 > 100 µM | SK-MEL-2 > 100 µM

COc1ccc(Cc2nc3cc(Cl)ccc3o2)cc1
inactive: SNB-75 13.1 µM | MCF7 27.9 µM | NCI-H460 31.2 µM | LOX IMVI 23.5 µM | HOP-92 41.2 µM | U-251 27.1 µM | T47D 21.3 µM | UACC-62 60 µM | A549 35.4 µM | DU-145 38.8 µM | NCI-H522 21.2 µM | MOLT-4 18.8 µM | NCI/ADR-RES 24.2 µM | MDA-N 35 µM | OVCAR-8 40.8 µM | SF-268 45.4 µM | SK-MEL-2 23.3 µM

O=C1/C(=C/c2n[nH]cc2-c2ccc(Cl)cc2)C(=O)N(c2ccccc2)C1c1ccccc1 (stereo not drawn)
inactive: MCF7 25.9 µM | NCI-H460 26.4 µM | LOX IMVI 14.3 µM | HOP-92 23.4 µM | U-251 19.9 µM | A498 20.6 µM | T47D 1.69 µM | UACC-62 11.5 µM | A549 25 µM | DU-145 20.6 µM | NCI-H522 7.74 µM | MOLT-4 16.9 µM | NCI/ADR-RES 21.6 µM | MDA-N 14 µM | SF-268 13.7 µM | SK-MEL-2 15.2 µM

NC12c3c4cccc3Oc3cccc(c31)Oc1cccc(c12)O4
inactive: SNB-75 > 50 µM | MCF7 > 50 µM | NCI-H460 > 50 µM | HOP-92 > 50 µM | U-251 > 50 µM | A498 > 50 µM | T47D > 50 µM | UACC-62 > 50 µM | A549 > 50 µM | DU-145 > 50 µM | NCI-H522 17.7 µM | MOLT-4 > 50 µM | NCI/ADR-RES > 50 µM | MDA-N > 50 µM | OVCAR-8 > 50 µM | SF-268 > 50 µM | SK-MEL-2 > 50 µM
